Measured values from ChEMBL document CHEMBL4342430, “An Agonist Radioligand for the Proinflammatory Lipid-Activated G Protein-Coupled Receptor GPR84 Providing Structural Insights” (J Med Chem, 2020).
One block for each molecule: values may come before it. Activity calls are given as the source filed them. The calls are words filed in the database; no cut-off is given here.

Assays:
[1] = target: T1, G-protein coupled receptor 84 (Homo sapiens, UniProt Q9NQS5); experiment: Displacement of [3H]PSB-1584 from recombinant human GPR84 expressed in CHO cell membranes co-expressing beta-arrestin2 measured after 6 hrs by scintillation counting method
T1 sequence (Q9NQS5 whole entry): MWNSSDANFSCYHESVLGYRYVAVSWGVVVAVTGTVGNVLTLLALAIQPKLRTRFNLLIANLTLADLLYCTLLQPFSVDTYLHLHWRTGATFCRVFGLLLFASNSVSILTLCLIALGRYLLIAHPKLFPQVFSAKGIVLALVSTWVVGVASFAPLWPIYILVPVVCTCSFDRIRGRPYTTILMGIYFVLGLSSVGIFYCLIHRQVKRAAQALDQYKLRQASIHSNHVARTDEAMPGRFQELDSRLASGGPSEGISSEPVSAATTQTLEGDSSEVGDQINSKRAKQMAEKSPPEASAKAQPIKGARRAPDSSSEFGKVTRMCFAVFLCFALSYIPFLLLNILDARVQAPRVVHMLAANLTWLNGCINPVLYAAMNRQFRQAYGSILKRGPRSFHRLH

[2] = target: T1, G-protein coupled receptor 84; experiment: Displacement of [3H]PSB-1584 from recombinant human GPR84 expressed in CHO cell membranes co-expressing beta-arrestin2 at 100 uM measured after 6 hrs by scintillation counting method relative to control
[3] = target: T1, G-protein coupled receptor 84; experiment: Selectivity ratio of EC50 for agonist activity at recombinant human GPR84 expressed in CHO cell membranes co-expressing beta-arrestin2 assessed as inhibition of forskolin-stimulated [3H]cAMP accumulation to Ki for displacement of [3H]PSB-1584 from recombinant human GPR84 expressed in CHO cell membranes co-expressing beta-arrestin2; format: functional
[4] = target: T1, G-protein coupled receptor 84; experiment: Positive allosteric modulation of recombinant human GPR84 expressed in CHO cell membranes co-expressing beta-arrestin2 assessed as increase in [3H]PSB-1584 binding measured after 6 hrs by scintillation counting method relative to control
[5] = target: T1, G-protein coupled receptor 84; experiment: Positive allosteric modulation of recombinant human GPR84 expressed in CHO cell membranes co-expressing beta-arrestin2 assessed as increase in [3H]PSB-1584 binding measured after 6 hrs by scintillation counting method
[6] = target: T1, G-protein coupled receptor 84; experiment: Agonist activity at recombinant human GPR84 expressed in CHO cell membranes co-expressing beta-arrestin2 assessed as inhibition of forskolin-stimulated [3H]cAMP accumulation preincubated for 5 mins followed by forskolin stimulation and measured after 15 mins by radioactive assay; format: functional, cell-based
[7] = target: T1, G-protein coupled receptor 84; experiment: Agonist activity at recombinant human GPR84 expressed in CHO cell membranes co-expressing beta-arrestin2 assessed as beta-arrestin 2 recruitment measured after 90 mins by beta-galactosidase based PathHunter assay
[8] = target: G-protein coupled receptor 84 (Mus musculus) (UniProt Q8CIM5); experiment: Displacement of [3H]PSB-1584 from GPR84 in mouse liver membranes measured after 6 hrs by scintillation counting method; format: cell membranes
Chain of G-protein coupled receptor 84 (Mus musculus) (Q8CIM5 whole entry): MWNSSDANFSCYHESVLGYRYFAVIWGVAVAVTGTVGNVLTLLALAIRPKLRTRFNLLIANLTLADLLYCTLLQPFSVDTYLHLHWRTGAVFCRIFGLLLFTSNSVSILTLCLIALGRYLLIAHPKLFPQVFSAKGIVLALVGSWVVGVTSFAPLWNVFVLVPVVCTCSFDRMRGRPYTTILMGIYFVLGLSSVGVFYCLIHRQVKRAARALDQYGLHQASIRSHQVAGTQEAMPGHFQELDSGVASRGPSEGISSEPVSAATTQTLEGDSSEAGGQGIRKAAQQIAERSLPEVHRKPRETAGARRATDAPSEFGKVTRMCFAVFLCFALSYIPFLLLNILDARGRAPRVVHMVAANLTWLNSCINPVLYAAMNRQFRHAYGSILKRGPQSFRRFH

Rattus norvegicus [9] = organism: Rattus norvegicus; experiment: Displacement of [3H]PSB-1584 from GPR84 in rat liver membranes measured after 6 hrs by scintillation counting method; format: cell membranes
Rattus norvegicus [10] = organism: Rattus norvegicus; experiment: Displacement of [3H]PSB-1584 from GPR84 in rat brain striatum membranes measured after 6 hrs by scintillation counting method; format: cell membranes
Rattus norvegicus [11] = organism: Rattus norvegicus; experiment: Displacement of [3H]PSB-1584 from GPR84 in rat brain cortex membranes measured after 6 hrs by scintillation counting method; format: cell membranes

Ki [1]: 0.0108 µM
SMILES: Oc1cc(NCCc2ccccc2)nc(O)n1

Ki [1]: 0.0023 µM
SMILES: O=c1cc(NCCc2ccc(Cl)cc2Cl)[nH]c(=O)[nH]1

Ki [1]: 0.0187 µM
SMILES: O=c1cc(N2CCC(Cc3ccccc3)CC2)[nH]c(=O)[nH]1

Ki [1]: 0.189 µM
SMILES: O=Nc1c(NCCCc2ccccc2)[nH]c(=O)[nH]c1=O

IC50 [1]: 43.7 µM
SMILES: Clc1ccc2c(Cc3c[nH]c4cc(Cl)ccc34)c[nH]c2c1

inhibition [2]: 26%
Ki [1]: > 10 µM
SMILES: CCCCCCCCCNC(=O)c1cc(=O)[nH]c(=O)[nH]1

Ki [1]: 0.00377 µM
SMILES: O=c1cc(O)nc(SCCc2ccc(F)cc2)[nH]1

Selectivity ratio [3]: 58
%max [4]: 69%
EC50 [5]: 0.0591 µM
SMILES: Brc1ccc2[nH]cc(Cc3c[nH]c4ccc(Br)cc34)c2c1

Ki [1]: 0.00317 µM
SMILES: O=c1cc(O)nc(SCCc2ccc(Br)cc2)[nH]1

inhibition [2]: -3%
Ki [1]: > 10 µM
SMILES: CCCCOC(=O)c1cc(O)nc(O)n1

inhibition [2]: 12%
Ki [1]: > 10 µM
SMILES: CCCCCCCCNC(=O)c1cc(=O)[nH]c(=O)[nH]1

Ki [1]: 0.0021 µM
SMILES: O=c1cc(NCCCOc2ccccc2)[nH]c(=O)[nH]1

IC50 [1]: 46.3 µM
SMILES: CCC(c1c[nH]c2ccccc12)c1c[nH]c2ccccc12

Ki [1]: 0.0367 µM
SMILES: O=c1cc(O)nc(SCCc2ccc(C(F)(F)F)cc2)[nH]1

SMILES: O=C(O)CCCCCCCCCCCO
EC50 [6]: > 100 µM
inhibition [2]: 5%
EC50 [7]: > 100 µM
Ki [1]: > 10 µM

IC50 [1]: 22.4 µM
SMILES: CCCC(c1c[nH]c2ccccc12)c1c[nH]c2ccccc12

%max [4]: 57%
EC50 [5]: 0.302 µM
SMILES: Fc1ccc2c(Cc3c[nH]c4cc(F)ccc34)c[nH]c2c1

Ki [1]: 0.00694 µM
SMILES: CCCCCCN(C)c1cc(=O)[nH]c(=O)[nH]1

Ki [1]: 0.037 µM
SMILES: CCCCCCCCNc1[nH]c(=O)[nH]c(=O)c1N=O

EC50 [6]: 31.8 µM
EC50 [7]: 4.05 µM
Ki [1]: 3.31 µM
SMILES: CCCCCCCC(O)CC(=O)O (racemic)

Ki [1]: 0.000726 µM
SMILES: CCCCCCCCCCNc1cc(O)nc(O)n1

Ki [1]: 0.000582 µM
SMILES: CCc1ccc(CCNc2cc(=O)[nH]c(=O)[nH]2)cc1

%max [4]: 94%
EC50 [5]: 0.175 µM
SMILES: Clc1cccc2[nH]cc(Cc3c[nH]c4cccc(Cl)c34)c12

Ki [1]: 0.0374 µM
SMILES: CCC/C=C/CNc1cc(=O)[nH]c(=O)[nH]1

Ki [1]: 1.56 µM
SMILES: CCCCCNC(=O)c1cc(=O)[nH]c(=O)[nH]1

Ki [1]: 0.0007 µM
SMILES: Oc1cc(O)nc(SCCCc2ccccc2)n1

Ki [1]: 0.00125 µM
SMILES: Cc1ccc(CCNc2cc(=O)[nH]c(=O)[nH]2)cc1

Ki [1]: 0.497 µM
SMILES: O=c1cc(NCCc2c[nH]c3ccccc23)[nH]c(=O)[nH]1

EC50 [6]: > 100 µM
EC50 [7]: > 100 µM
Ki [1]: 19.6 µM
SMILES: CCCCCCCC(=O)O [OCTANOIC ACID]

Ki [1]: 0.00058 µM
SMILES: Oc1cc(NCCCCc2ccccc2)nc(O)n1

%max [4]: 125%
EC50 [5]: 0.199 µM
SMILES: Fc1ccc2[nH]cc(Cc3c[nH]c4ccc(F)cc34)c2c1

Ki [1]: 0.036 µM
SMILES: O=c1cc(NCCc2ccccc2Cl)[nH]c(=O)[nH]1

Ki [1]: 0.0036 µM
SMILES: CCCCCCCCN(C)c1cc(=O)[nH]c(=O)[nH]1

Ki [1]: 0.0114 µM
SMILES: O=c1cc(NCCc2ccc(F)cc2)[nH]c(=O)[nH]1

Ki [1]: 0.469 µM
SMILES: CCCCCCNC(=O)c1cc(=O)[nH]c(=O)[nH]1

Ki [1]: 0.0147 µM
SMILES: O=c1cc(N2CCN(C3CCc4ccccc43)CC2)[nH]c(=O)[nH]1 (centres undefined)

EC50 [6]: > 100 µM
inhibition [2]: 50%
EC50 [7]: > 100 µM
Ki [1]: 100 µM
SMILES: CCCCCCC(O)C(=O)O (racemic)

Ki [1]: 0.225 µM
SMILES: CCCCCCNc1[nH]c(=O)[nH]c(=O)c1Br

Ki [1]: 3.47 µM
SMILES: CCCCCCSc1nccc(O)n1

inhibition [2]: 9%
Ki [1]: > 10 µM
SMILES: CCCCCCSc1nc(O)cc(C(=O)OC)n1

%max [4]: 67%
EC50 [5]: 0.0836 µM
SMILES: Fc1ccc2[nH]cc(Cc3c[nH]c4ccc(F)c(F)c34)c2c1F

Ki [1]: 0.00112 µM
SMILES: CCCCCCCCCNc1cc(=O)[nH]c(=O)[nH]1

%max [4]: 55%
SMILES: Fc1ccc2[nH]cc(Cc3c[nH]c4ccccc34)c2c1

EC50 [6]: 9.61 µM
EC50 [7]: 1.7 µM
Ki [1]: 1.93 µM
SMILES: CCCCCCCCCCCCC(=O)O [TRIDECANOATE]

Ki [1]: 3.63 µM
SMILES: CCCCCCSc1nc(C)cc(O)n1

%max [4]: 55%
EC50 [5]: 0.0524 µM
SMILES: Fc1cc2[nH]cc(Cc3c[nH]c4cc(F)c(F)cc34)c2cc1F

EC50 [6]: 3.86 µM
EC50 [7]: 4.36 µM
Ki [1]: 0.318 µM
SMILES: CCCCCCCCCCCCC(O)C(=O)O (racemic)

%max [4]: < 100%
Activity [5]: Dose-dependent effect
inhibition [1]: inactive
SMILES: c1ccc2c(Cc3c[nH]c4ccccc34)c[nH]c2c1

Selectivity ratio [3]: 20
%max [4]: 90%
EC50 [5]: 0.25 µM
SMILES: Clc1ccc2[nH]cc(Cc3c[nH]c4ccc(Cl)cc34)c2c1

Ki [1]: 0.091 µM
SMILES: CCCCCNc1cc(=O)[nH]c(=O)[nH]1

Ki [1]: 0.145 µM
SMILES: CCCCCCSc1nc(O)cc(C(=O)O)n1

Ki [1]: 0.00312 µM
SMILES: O=c1cc(NCCOc2ccccc2)[nH]c(=O)[nH]1

EC50 [6]: 1.75 µM
EC50 [7]: 0.452 µM
Ki [1]: 0.472 µM
SMILES: CCCCCCCCCCC[C@@H](O)CC(=O)O

Ki [1]: 0.0347 µM
SMILES: CCCCCCCCNc1[nH]c(=O)[nH]c(=O)c1Br

Ki [1]: 0.000866 µM
SMILES: CCCCCCCNc1cc(=O)[nH]c(=O)[nH]1

Ki [1]: 0.267 µM
SMILES: O=c1cc(NCCCCCCCO)[nH]c(=O)[nH]1

inhibition [2]: 51%
Ki [1]: ≥ 100 µM
SMILES: CCCCCCSc1nc(O)cc(CCC)n1

Ki [1]: 0.0444 µM
SMILES: O=c1cc(N2CCN(c3ccc(Cl)cc3)CC2)[nH]c(=O)[nH]1

Ki [1]: 0.0494 µM
SMILES: O=c1cc(NCCc2cccs2)[nH]c(=O)[nH]1

Ki [1]: 1.21 µM
SMILES: CCCCCCOC(=O)c1cc(=O)[nH]c(=O)[nH]1

EC50 [7]: 3.49 µM
Ki [1]: 2.17 µM
SMILES: CCCCCCCCCCCC(=O)O [DODECANOATE]

Ki [1]: 0.00475 µM
SMILES: O=c1cc(NCCc2cccc(Cl)c2)[nH]c(=O)[nH]1

Ki [1]: 0.00948 µM
SMILES: O=c1cc(NCCc2cccc(F)c2)[nH]c(=O)[nH]1

Ki [1]: 0.00263 µM
SMILES: O=c1cc(O)nc(SCCc2ccc(Cl)cc2)[nH]1

Ki [1]: 0.00127 µM
SMILES: CC(C)(C)c1ccc(CCNc2cc(=O)[nH]c(=O)[nH]2)cc1

%max [4]: 53%
EC50 [5]: 0.495 µM
SMILES: COc1ccc2[nH]cc(Cc3c[nH]c4ccccc34)c2c1

%max [4]: 46%
EC50 [5]: 0.103 µM
SMILES: COc1ccc2[nH]cc(Cc3c[nH]c4ccc(OC)cc34)c2c1

inhibition [8]: Active
inhibition (Rattus norvegicus [9]): Active
inhibition (Rattus norvegicus [10]): Active
inhibition (Rattus norvegicus [11]): Active
SMILES: O=c1cc(NCCc2ccc(Br)cc2)[nH]c(=O)[nH]1

Ki [1]: 1.59 µM
SMILES: O=C(NCCCc1ccccc1)c1cc(=O)[nH]c(=O)[nH]1

Selectivity ratio [3]: 84
%max [4]: 36%
EC50 [5]: 0.129 µM
SMILES: Fc1cc2c(Cc3c[nH]c4cc(Cl)c(F)cc34)c[nH]c2cc1Cl

Ki [1]: 0.00399 µM
SMILES: O=c1cc(NCCc2cccc(Br)c2)[nH]c(=O)[nH]1

EC50 [7]: 3.25 µM
Ki [1]: 0.11 µM
SMILES: CCCCCCCCCC(O)CC(=O)O (racemic)

%max [4]: 153%
EC50 [5]: 0.0618 µM
SMILES: Fc1cccc2c(Cc3c[nH]c4c(F)cccc34)c[nH]c12

Ki [1]: 0.000324 µM
SMILES: Oc1cc(O)nc(SCCCCc2ccccc2)n1

IC50 [1]: 14 µM
SMILES: Cn1cc(Cc2cn(C)c3ccccc23)c2ccccc21

Ki [1]: 0.0627 µM
SMILES: O=c1cc(N2CCN(Cc3cccc4ccccc34)CC2)[nH]c(=O)[nH]1

Ki [1]: 0.0356 µM
SMILES: O=c1cc(NCCc2ccccc2F)[nH]c(=O)[nH]1

Ki [1]: 0.00328 µM
SMILES: Cc1ccc(CCSc2nc(O)cc(=O)[nH]2)cc1

Ki [1]: 0.0586 µM
SMILES: CCCCCCCNc1[nH]c(=O)[nH]c(=O)c1N=O

%max [4]: 87%
SMILES: Fc1cc(F)c2[nH]cc(Cc3c[nH]c4c(F)cc(F)cc34)c2c1

%max [4]: 59%
EC50 [5]: 1.93 µM
SMILES: O=C(c1c[nH]c2ccccc12)c1c[nH]c2ccccc12

EC50 [6]: 1.57 µM
EC50 [7]: 0.432 µM
Ki [1]: 0.511 µM
SMILES: CCCCCCCCCCCC(O)CC(=O)O (racemic)

%max [4]: 56%
EC50 [5]: 1.52 µM
SMILES: Fc1cccc2[nH]cc(Cc3c[nH]c4cccc(F)c34)c12
